# pKi: −log10 of the molar value. Where two headings read alike, the source gives them in different places.
# What was measured:
# [1] = system: KP1004 KPC-2; test: Biapenem potentiation (MPC@1), strain KP1004 KPC-2; format: cell-based; details: minimum BLI concentration inhibiting growth with biapenem 1 μg/mL; tested up to 40 μg/mL
# Protocol: (§1) Biapenem was present in the test medium at 1 μg/mL. […] Table 3 summarizes the BLI potency of biapenem potentiation (MPC@1) for two strains overexpressing class A (KPC) and class D (OXA-48) carbapenemases. Biapenem MIC for each strain is also shown.
# [2] = system: ec302 TEM-10; test: Aztreonam potentiation (MPC@4), strain ec302 TEM-10; details: minimum BLI concentration inhibiting growth with aztreonam 4 μg/mL; tested up to 40 μg/mL
# [3] = system: KP1004 KPC-2; test: Aztreonam potentiation (MPC@4), strain KP1004 KPC-2; details: minimum BLI concentration inhibiting growth with aztreonam 4 μg/mL; tested up to 40 μg/mL
# [4] = system: EC1010 CMY-6; test: Aztreonam potentiation (MPC@4), strain EC1010 CMY-6; details: minimum BLI concentration inhibiting growth with aztreonam 4 μg/mL; tested up to 40 μg/mL
# [5] = system: KP1005 CTX-M-14; test: Tigemonam potentiation (MPC@4), strain KP1005 CTX-M-14; details: minimum BLI concentration inhibiting growth with tigemonam 4 μg/mL; tested up to 40 μg/mL
# [6] = system: KP1009 CTX-M-15; test: Aztreonam potentiation (MPC@4), strain KP1009 CTX-M-15; details: minimum BLI concentration inhibiting growth with aztreonam 4 μg/mL; tested up to 40 μg/mL
# [7] = system: ECL1002; test: Aztreonam potentiation (MPC@4), strain ECL1002; details: minimum BLI concentration inhibiting growth with aztreonam 4 μg/mL; tested up to 40 μg/mL
# [8] = system: AB1053 OXA-72; test: Meropenem potentiation (MPC@8), strain AB1053 OXA-72; format: cell-based, Acinetobacter baumannii; details: for MPM MPC8 AB1053 OXA-72: minimum BLI concentration inhibiting growth with meropenem 8 μg/mL, tested up to 20 μg/mL
# [9] = system: KP1010 SHV-12; test: Aztreonam potentiation (MPC@4), strain KP1010 SHV-12; details: minimum BLI concentration inhibiting growth with aztreonam 4 μg/mL; tested up to 40 μg/mL
# [10] = system: KP1086 OXA-48; test: Biapenem potentiation (MPC@1), strain KP1086 OXA-48; format: cell-based; details: minimum BLI concentration inhibiting growth with biapenem 1 μg/mL; tested up to 40 μg/mL
# Protocol: as §1
# [11] = molecular target: purified class A, C and D enzymes (β-lactamases) (Enterobacter cloacae, UniProt P05364); test: biochemical; format: biochemical
# [12] = molecular target: purified class A, C and D enzymes (β-lactamases) (Klebsiella pneumoniae, UniProt Q6XEC0); test: biochemical; format: biochemical
# [13] = molecular target: T1, purified class A, C and D enzymes (β-lactamases) (Pseudomonas aeruginosa, UniProt P24735); test: biochemical; format: biochemical
# T1 construct: rows headed: Ki (Pa-AmpC, NCF), uM; other: purified Pa-AmpC; nitrocefin (NCF) as reporter substrate
# [14] = molecular target: purified class A, C and D enzymes (β-lactamases) (Klebsiella pneumoniae, UniProt Q9F663); test: biochemical; format: biochemical
# [15] = molecular target: T2, purified class A, C and D enzymes (β-lactamases) (Acinetobacter baumannii, UniProt Q9L4P2); test: biochemical; format: biochemical; details: purified OXA-23; nitrocefin (NCF) as reporter substrate
# T2 construct: rows headed: Ki (OXA-23, NCF), uM; other: purified OXA-23; nitrocefin (NCF) as reporter substrate
# [16] = system: AB1054 OXA-23; test: Meropenem potentiation (MPC@8), strain AB1054 OXA-23; format: cell-based, Acinetobacter baumannii; details: for MPM MPC8 AB1054 OXA-23: minimum BLI concentration inhibiting growth with meropenem 8 μg/mL, tested up to 20 μg/mL
# [17] = system: ec308 SHV-5; test: Aztreonam potentiation (MPC@4), strain ec308 SHV-5; details: minimum BLI concentration inhibiting growth with aztreonam 4 μg/mL; tested up to 40 μg/mL
# [18] = purified OXA-48, nitrocefin (NCF) as reporter substrate
# [19] = purified KPC-2, nitrocefin (NCF) as reporter substrate
SMILES,BPM MPC1 KP1004 KPC-2 [1],AZT MPC4 TEM-10 ec302 [2],AZT MPC4 KPC-2 KP1004 [3],AZT MPC4 CMY-6 EC1010 [4],TIG MPC4 CTX-M-14 KP1005 [5],AZT MPC4 CTX-M-15 KP1009 [6],AZT MPC4 ECL1002 [7],MPM MPC8 AB1053 OXA-72 [8],AZT MPC4 SHV-12 KP1010 [9],BPM MPC1 OXA-48 KP1086 [10],"Ki (OXA-48, NCF), uM [12, 18]","Ki (KPC-2, NCF), uM [14, 19]",pKi [15],MPM MPC8 AB1054 OXA-23 [16],AZT MPC4 SHV-5 ec308 [17],"Ki (P99, NCF), uM [11]",pKi [13],other results
"O=C(O)c1c(OCC2OCCO2)ccc2c1OB(O)CC2 [Compound 26, 7-(1,3-Dioxolan-2-ylmethoxy)-2-hydroxy-3,4-dihydro-1,2-benzoxaborinine-8-carboxylic acid]",X (X = MPC@1 ≤ 5 μg/mL),Y (Y = 5 μg/mL < MPC@4 ≤ 20 μg/mL),X (X = MPC@4 ≤ 5 μg/mL),X (X = MPC@4 ≤ 5 μg/mL),Z (Z = MPC@4 > 20 μg/mL),Y (Y = 5 μg/mL < MPC@4 ≤ 20 μg/mL),X (X = MPC@4 ≤ 5 μg/mL),X (X = MPC@1 ≤ 5 μg/mL),X (X = MPC@4 ≤ 5 μg/mL),X (X = MPC@1 ≤ 5 μg/mL),X (X = Ki ≤ 0.1 μM),X (X = Ki ≤ 0.1 μM),> 7.00,Y (Y = 5 μg/mL < MPC@1 ≤ 20 μg/mL),Y (Y = 5 μg/mL < MPC@4 ≤ 20 μg/mL),,,"Ki (P99, NCF), uM ([11]; purified P99, nitrocefin (NCF) as reporter substrate): X (X = Ki ≤ 0.1 μM); pKi ([13]; purified Pa-AmpC, nitrocefin (NCF) as reporter substrate, read-out: Ki (Pa-AmpC, NCF)): > 7.00"
"O=C([O-])c1c(OCC#CCO)ccc2c1O[B-](O)(O)CC2.[Na+].[Na+] [Compound 30, Disodium; 4,4-dihydroxy-8-(4-hydroxybut-2-ynoxy)-5-oxa-4-boranuidabicyclo[4.4.0]deca-1(6),7,9-triene-7-carboxylate]",X (X = MPC@1 ≤ 5 μg/mL),X (X = MPC@4 ≤ 5 μg/mL),X (X = MPC@4 ≤ 5 μg/mL),X (X = MPC@4 ≤ 5 μg/mL),Y (Y = 5 μg/mL < MPC@4 ≤ 20 μg/mL),X (X = MPC@4 ≤ 5 μg/mL),X (X = MPC@4 ≤ 5 μg/mL),X (X = MPC@1 ≤ 5 μg/mL),X (X = MPC@4 ≤ 5 μg/mL),Y (Y = 5 μg/mL < MPC@1 ≤ 20 μg/mL),X (X = Ki ≤ 0.1 μM),X (X = Ki ≤ 0.1 μM),> 7.00,X (X = MPC@1 ≤ 5 μg/mL),X (X = MPC@4 ≤ 5 μg/mL),X (key: X = Ki ≤ 0.1 μM; Y = 0.1 μM < Ki ≤ 1 μM; Z = Ki > 1 μM),> 7.00,
"COCC#CCOc1ccc2c(c1C(=O)[O-])O[B-](O)(O)CC2.[Na+].[Na+] [Compound 31, Disodium; 4,4-dihydroxy-8-(4-methoxybut-2-ynoxy)-5-oxa-4-boranuidabicyclo[4.4.0]deca-1(6),7,9-triene-7-carboxylate]",X (X = MPC@1 ≤ 5 μg/mL),Y (Y = 5 μg/mL < MPC@4 ≤ 20 μg/mL),X (X = MPC@4 ≤ 5 μg/mL),X (X = MPC@4 ≤ 5 μg/mL),Y (Y = 5 μg/mL < MPC@4 ≤ 20 μg/mL),Y (Y = 5 μg/mL < MPC@4 ≤ 20 μg/mL),X (X = MPC@4 ≤ 5 μg/mL),X (X = MPC@1 ≤ 5 μg/mL),X (X = MPC@4 ≤ 5 μg/mL),X (X = MPC@1 ≤ 5 μg/mL),X (X = Ki ≤ 0.1 μM),X (X = Ki ≤ 0.1 μM),> 7.00,X (X = MPC@1 ≤ 5 μg/mL),X (X = MPC@4 ≤ 5 μg/mL),X (key: X = Ki ≤ 0.1 μM; Y = 0.1 μM < Ki ≤ 1 μM; Z = Ki > 1 μM),> 7.00,
"NCC#CCOc1ccc2c(c1C(=O)[O-])O[B-](O)(O)CC2.[Na+].[Na+] [Compound 32, Disodium; 8-(4-aminobut-2-ynoxy)-4,4-dihydroxy-5-oxa-4-boranuidabicyclo[4.4.0]deca-1(6),7,9-triene-7-carboxylate]",X (X = MPC@1 ≤ 5 μg/mL),X (X = MPC@4 ≤ 5 μg/mL),X (X = MPC@4 ≤ 5 μg/mL),X (X = MPC@4 ≤ 5 μg/mL),Y (Y = 5 μg/mL < MPC@4 ≤ 20 μg/mL),X (X = MPC@4 ≤ 5 μg/mL),X (X = MPC@4 ≤ 5 μg/mL),X (X = MPC@1 ≤ 5 μg/mL),X (X = MPC@4 ≤ 5 μg/mL),X (X = MPC@1 ≤ 5 μg/mL),X (X = Ki ≤ 0.1 μM),X (X = Ki ≤ 0.1 μM),> 7.00,X (X = MPC@1 ≤ 5 μg/mL),Y (Y = 5 μg/mL < MPC@4 ≤ 20 μg/mL),X (key: X = Ki ≤ 0.1 μM; Y = 0.1 μM < Ki ≤ 1 μM; Z = Ki > 1 μM),> 7.00,
"CSc1ccc2c(c1C(=O)[O-])O[B-](O)(O)CC2.[Na+].[Na+] [Compound 36, Disodium; 4,4-dihydroxy-8-methylsulfanyl-5-oxa-4-boranuidabicyclo[4.4.0]deca-1(6),7,9-triene-7-carboxylate]",X (X = MPC@1 ≤ 5 μg/mL),X (X = MPC@4 ≤ 5 μg/mL),X (X = MPC@4 ≤ 5 μg/mL),X (X = MPC@4 ≤ 5 μg/mL),Y (Y = 5 μg/mL < MPC@4 ≤ 20 μg/mL),Y (Y = 5 μg/mL < MPC@4 ≤ 20 μg/mL),X (X = MPC@4 ≤ 5 μg/mL),Y (Y = 5 μg/mL < MPC@1 ≤ 20 μg/mL),X (X = MPC@4 ≤ 5 μg/mL),X (X = MPC@1 ≤ 5 μg/mL),X (X = Ki ≤ 0.1 μM),X (X = Ki ≤ 0.1 μM),> 7.00,X (X = MPC@1 ≤ 5 μg/mL),X (X = MPC@4 ≤ 5 μg/mL),X (key: X = Ki ≤ 0.1 μM; Y = 0.1 μM < Ki ≤ 1 μM; Z = Ki > 1 μM),> 7.00,
"C[S+]([O-])c1ccc2c(c1C(=O)[O-])O[B-](O)(O)CC2.[Na+].[Na+] (stereo not shown) [Compound 40, Disodium; 4,4-dihydroxy-8-methylsulfinyl-5-oxa-4-boranuidabicyclo[4.4.0]deca-1(6),7,9-triene-7-carboxylate]",X (X = MPC@1 ≤ 5 μg/mL),X (X = MPC@4 ≤ 5 μg/mL),X (X = MPC@4 ≤ 5 μg/mL),X (X = MPC@4 ≤ 5 μg/mL),X (X = MPC@4 ≤ 5 μg/mL),X (X = MPC@4 ≤ 5 μg/mL),X (X = MPC@4 ≤ 5 μg/mL),Z (Z = MPC@1 > 20 μg/mL),X (X = MPC@4 ≤ 5 μg/mL),X (X = MPC@1 ≤ 5 μg/mL),X (X = Ki ≤ 0.1 μM),X (X = Ki ≤ 0.1 μM),,Z (Z = MPC@1 > 20 μg/mL),X (X = MPC@4 ≤ 5 μg/mL),X (key: X = Ki ≤ 0.1 μM; Y = 0.1 μM < Ki ≤ 1 μM; Z = Ki > 1 μM),> 7.00,
"C[C@@H](O)[C@H]1C(=O)N2C(C(=O)O)=C(S[C@@H]3CN[C@H](C(=O)N(C)C)C3)[C@H](C)[C@H]12 [Meropenem, reference compound]",,,,,,,,,,,,,,,,,,"MIC ([8]; Acinetobacter baumannii, strain AB1053 OXA-72, meropenem alone): > 64 µg/mL; MIC ([16]; Acinetobacter baumannii, strain AB1054 OXA-23, meropenem alone): 32 µg/mL"
"C[C@]1(Cn2ccnn2)[C@H](C(=O)O)N2C(=O)C[C@H]2S1(=O)=O [Tazobactam, reference compound]",Z (Z = MPC@1 > 20 μg/mL),X (X = MPC@4 ≤ 5 μg/mL),Z (Z = MPC@4 > 20 μg/mL),Y (Y = 5 μg/mL < MPC@4 ≤ 20 μg/mL),Y (Y = 5 μg/mL < MPC@4 ≤ 20 μg/mL),Y (Y = 5 μg/mL < MPC@4 ≤ 20 μg/mL),Z (Z = MPC@4 > 20 μg/mL),,X (X = MPC@4 ≤ 5 μg/mL),Y (Y = 5 μg/mL < MPC@1 ≤ 20 μg/mL),,,,,Y (Y = 5 μg/mL < MPC@4 ≤ 20 μg/mL),,,"Ki (OXA-48, NCF), uM [12]: Y (key: X = Ki ≤ 0.1 μM; Y = 0.1 μM < Ki ≤ 1 μM; Z = Ki > 1 μM); Ki (KPC-2, NCF), uM [14]: Z (key: X = Ki ≤ 0.1 μM; Y = 0.1 μM < Ki ≤ 1 μM; Z = Ki > 1 μM)"

# From patent US10618918B2, “Substituted boronic acids as antimicrobials” (priority 2015, dated 2020)
